Laboratory results reported in PMC12420824, “Discovery of a selective alpha-kinase 1 inhibitor for the rare genetic disease ROSAH syndrome” (Nature Communications, 2025).

Legend:
Experiment in all cases: HotSpot kinase assay
Conditions in all cases: read-out: % Enzyme Activity (relative to DMSO control), 10 uM
PASK = PASK (Homo sapiens, UniProt Q96RG2)
Description: (§1) Additionally, a 10-dose dilution series of staurosporine and other enzyme-appropriate compounds were included as positive control inhibitors.

ULK1 = ULK1 (Homo sapiens, UniProt O75385)
Description: as §1

p70S6K/RPS6KB1 = p70S6K/RPS6KB1 (Homo sapiens, UniProt P23443)
HIPK4 = HIPK4 (Homo sapiens, UniProt Q8NE63)
AKT1 = AKT1 (Homo sapiens, UniProt P31749)
AMPK(A2/B2/G2) = AMPK(A2/B2/G2) (Homo sapiens, UniProt P54646)
Description: as §1

AMPK(A2/B2/G3) = AMPK(A2/B2/G3) (Homo sapiens, UniProt P54646)
Description: as §1

ULK2 = ULK2 (Homo sapiens, UniProt Q8IYT8)
Description: as §1

PRKX = PRKX (Homo sapiens, UniProt P51817)
Description: as §1

CDK2/cyclin A = CDK2/cyclin A (Homo sapiens, UniProt P24941)
Description: as §1

STK38/NDR1 = STK38/NDR1 (Homo sapiens, UniProt Q15208)
Description: as §1

AMPK(A2/B2/G1) = AMPK(A2/B2/G1) (Homo sapiens, UniProt P54646)
CK1a1 = CK1a1 (Homo sapiens, UniProt P48729)
Description: as §1

CLK2 = CLK2 (Homo sapiens, UniProt P49760)
Description: as §1

KSR1 = KSR1 (Homo sapiens, UniProt Q8IVT5)
Description: as §1

MRCKb/CDC42BPB = MRCKb/CDC42BPB (Homo sapiens, UniProt Q9Y5S2)
FLT4/VEGFR3 = FLT4/VEGFR3 (Homo sapiens, UniProt P35916)
STK32B/YANK2 = STK32B/YANK2 (Homo sapiens, UniProt Q9NY57)
Description: as §1

EIF2AK4 = EIF2AK4 (Homo sapiens, UniProt Q9P2K8)
Description: as §1

P38d/MAPK13 = P38d/MAPK13 (Homo sapiens, UniProt O15264)
Description: as §1

TEC = TEC (Homo sapiens, UniProt P42680)
Description: as §1

MAPKAPK3 = MAPKAPK3 (Homo sapiens, UniProt Q16644)
Description: as §1

PAK1 = PAK1 (Homo sapiens, UniProt Q13153)
Description: as §1

PKCa = PKCa (Homo sapiens, UniProt P17252)
Description: as §1

PDK1/PDPK1 = PDK1/PDPK1 (Homo sapiens, UniProt O15530)

KSR1, sequence (Q8IVT5 whole entry): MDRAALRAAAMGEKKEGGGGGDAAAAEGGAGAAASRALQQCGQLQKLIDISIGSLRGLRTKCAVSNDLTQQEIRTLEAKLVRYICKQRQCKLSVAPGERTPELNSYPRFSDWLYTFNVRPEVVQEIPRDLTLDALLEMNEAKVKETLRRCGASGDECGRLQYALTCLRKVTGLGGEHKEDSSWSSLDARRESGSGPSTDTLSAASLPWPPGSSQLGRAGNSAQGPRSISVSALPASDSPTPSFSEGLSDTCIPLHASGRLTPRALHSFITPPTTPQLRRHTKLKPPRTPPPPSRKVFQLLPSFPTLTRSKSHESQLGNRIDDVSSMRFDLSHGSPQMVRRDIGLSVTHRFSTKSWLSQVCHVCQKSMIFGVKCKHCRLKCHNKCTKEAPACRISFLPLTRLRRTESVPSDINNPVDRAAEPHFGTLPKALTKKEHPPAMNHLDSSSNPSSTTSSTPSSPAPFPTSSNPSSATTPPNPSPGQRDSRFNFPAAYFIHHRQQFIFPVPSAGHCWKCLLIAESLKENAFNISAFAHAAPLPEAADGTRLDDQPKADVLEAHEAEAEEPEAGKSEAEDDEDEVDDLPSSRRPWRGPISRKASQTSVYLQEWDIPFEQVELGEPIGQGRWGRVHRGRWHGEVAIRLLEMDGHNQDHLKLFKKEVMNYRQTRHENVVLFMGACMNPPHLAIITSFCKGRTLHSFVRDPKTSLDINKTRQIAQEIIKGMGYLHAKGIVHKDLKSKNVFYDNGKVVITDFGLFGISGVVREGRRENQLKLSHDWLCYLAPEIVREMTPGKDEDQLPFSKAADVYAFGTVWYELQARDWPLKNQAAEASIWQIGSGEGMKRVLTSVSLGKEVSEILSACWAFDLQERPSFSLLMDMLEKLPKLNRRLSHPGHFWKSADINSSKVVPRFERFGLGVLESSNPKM
P38d/MAPK13, sequence (O15264 whole entry): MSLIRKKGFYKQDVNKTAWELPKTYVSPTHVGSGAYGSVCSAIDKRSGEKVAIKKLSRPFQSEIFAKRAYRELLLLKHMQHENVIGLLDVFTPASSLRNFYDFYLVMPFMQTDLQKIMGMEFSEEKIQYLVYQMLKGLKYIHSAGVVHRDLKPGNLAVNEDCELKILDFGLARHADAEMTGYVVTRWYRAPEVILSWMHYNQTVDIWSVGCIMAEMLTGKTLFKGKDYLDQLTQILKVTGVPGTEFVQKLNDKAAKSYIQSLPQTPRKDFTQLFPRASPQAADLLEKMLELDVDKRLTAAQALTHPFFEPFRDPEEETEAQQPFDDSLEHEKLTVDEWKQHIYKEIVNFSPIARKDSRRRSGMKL
PRKX, sequence (P51817 whole entry): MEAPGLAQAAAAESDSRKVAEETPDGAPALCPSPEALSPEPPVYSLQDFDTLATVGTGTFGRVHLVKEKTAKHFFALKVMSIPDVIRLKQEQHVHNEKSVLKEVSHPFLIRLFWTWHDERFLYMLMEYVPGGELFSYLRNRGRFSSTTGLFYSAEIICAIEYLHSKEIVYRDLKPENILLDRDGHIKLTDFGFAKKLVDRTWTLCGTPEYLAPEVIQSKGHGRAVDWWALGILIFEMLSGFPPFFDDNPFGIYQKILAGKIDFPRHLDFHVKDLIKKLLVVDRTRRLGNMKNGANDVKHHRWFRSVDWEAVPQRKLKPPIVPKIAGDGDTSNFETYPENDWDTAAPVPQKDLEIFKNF
PAK1, sequence (Q13153 whole entry): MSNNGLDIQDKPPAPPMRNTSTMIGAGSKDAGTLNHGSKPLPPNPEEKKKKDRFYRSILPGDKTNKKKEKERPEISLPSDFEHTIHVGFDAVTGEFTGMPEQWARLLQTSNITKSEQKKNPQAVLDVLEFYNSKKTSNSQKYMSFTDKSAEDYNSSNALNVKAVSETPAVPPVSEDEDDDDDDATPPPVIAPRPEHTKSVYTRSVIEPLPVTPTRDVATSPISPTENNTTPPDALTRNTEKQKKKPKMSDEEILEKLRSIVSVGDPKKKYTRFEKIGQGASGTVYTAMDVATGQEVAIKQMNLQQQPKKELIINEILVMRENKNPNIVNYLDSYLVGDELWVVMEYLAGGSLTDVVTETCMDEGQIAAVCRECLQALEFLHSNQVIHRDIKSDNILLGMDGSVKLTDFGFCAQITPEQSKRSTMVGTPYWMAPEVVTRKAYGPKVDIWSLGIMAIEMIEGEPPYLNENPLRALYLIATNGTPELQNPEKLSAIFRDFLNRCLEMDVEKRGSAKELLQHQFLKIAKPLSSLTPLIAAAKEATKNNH
STK38/NDR1, sequence (Q15208 whole entry): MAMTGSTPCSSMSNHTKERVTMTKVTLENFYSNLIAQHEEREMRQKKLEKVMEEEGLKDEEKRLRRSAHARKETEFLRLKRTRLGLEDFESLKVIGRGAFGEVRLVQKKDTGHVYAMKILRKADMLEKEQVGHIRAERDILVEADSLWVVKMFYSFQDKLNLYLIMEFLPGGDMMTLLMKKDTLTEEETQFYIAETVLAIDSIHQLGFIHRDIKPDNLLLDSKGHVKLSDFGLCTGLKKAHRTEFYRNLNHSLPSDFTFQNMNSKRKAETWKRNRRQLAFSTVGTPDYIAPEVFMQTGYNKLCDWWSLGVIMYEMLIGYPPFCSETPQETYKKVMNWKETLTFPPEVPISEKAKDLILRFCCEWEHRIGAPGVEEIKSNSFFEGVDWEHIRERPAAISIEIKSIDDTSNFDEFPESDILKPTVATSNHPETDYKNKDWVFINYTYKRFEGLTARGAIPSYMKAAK
STK32B/YANK2, sequence (Q9NY57 whole entry): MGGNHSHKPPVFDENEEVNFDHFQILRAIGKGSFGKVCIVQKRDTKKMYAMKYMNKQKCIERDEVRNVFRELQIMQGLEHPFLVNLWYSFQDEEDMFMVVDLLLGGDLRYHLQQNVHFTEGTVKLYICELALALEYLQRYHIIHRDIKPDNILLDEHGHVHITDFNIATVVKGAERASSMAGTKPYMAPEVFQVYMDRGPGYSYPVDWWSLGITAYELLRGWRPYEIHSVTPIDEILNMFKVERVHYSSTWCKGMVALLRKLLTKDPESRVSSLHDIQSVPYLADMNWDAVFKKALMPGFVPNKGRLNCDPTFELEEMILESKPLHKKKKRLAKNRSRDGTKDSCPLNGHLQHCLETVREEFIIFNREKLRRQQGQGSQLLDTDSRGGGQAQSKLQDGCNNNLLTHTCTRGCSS
CK1a1, sequence (P48729 whole entry): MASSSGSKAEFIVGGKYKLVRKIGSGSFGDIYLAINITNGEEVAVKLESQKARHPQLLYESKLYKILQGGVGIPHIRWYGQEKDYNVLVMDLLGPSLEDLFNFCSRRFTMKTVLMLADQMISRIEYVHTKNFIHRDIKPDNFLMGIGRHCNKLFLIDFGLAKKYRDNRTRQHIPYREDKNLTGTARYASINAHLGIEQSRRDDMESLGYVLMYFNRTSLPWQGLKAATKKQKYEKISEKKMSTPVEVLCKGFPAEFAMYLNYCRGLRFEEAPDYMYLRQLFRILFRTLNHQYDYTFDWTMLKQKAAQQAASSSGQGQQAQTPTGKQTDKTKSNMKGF
TEC, sequence (P42680 whole entry): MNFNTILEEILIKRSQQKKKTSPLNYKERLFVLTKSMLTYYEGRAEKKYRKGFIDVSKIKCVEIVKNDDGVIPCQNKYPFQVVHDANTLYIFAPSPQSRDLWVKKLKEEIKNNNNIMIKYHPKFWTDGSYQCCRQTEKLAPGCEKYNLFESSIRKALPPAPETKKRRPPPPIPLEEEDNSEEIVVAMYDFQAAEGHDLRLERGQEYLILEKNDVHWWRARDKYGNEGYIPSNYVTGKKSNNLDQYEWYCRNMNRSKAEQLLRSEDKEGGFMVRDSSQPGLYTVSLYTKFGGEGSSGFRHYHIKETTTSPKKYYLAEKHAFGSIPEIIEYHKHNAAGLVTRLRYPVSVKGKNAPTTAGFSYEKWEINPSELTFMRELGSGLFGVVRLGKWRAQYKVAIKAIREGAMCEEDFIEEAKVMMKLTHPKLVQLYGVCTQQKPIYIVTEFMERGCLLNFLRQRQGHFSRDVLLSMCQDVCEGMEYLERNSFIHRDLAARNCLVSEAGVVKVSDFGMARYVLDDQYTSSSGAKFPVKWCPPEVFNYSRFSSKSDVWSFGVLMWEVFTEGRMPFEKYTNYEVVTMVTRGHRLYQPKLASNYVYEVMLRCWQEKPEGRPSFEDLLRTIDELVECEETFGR

## C#C[C@@](C)(c1ccc(Cl)cc1)c1csc(NC(=O)c2c(F)cc(N3CCNCC3)cc2F)n1 (stereo in doubt) [DF-003]
PASK
  remaining activity at 10 µM: 56.5%
ULK1
  remaining activity at 10 µM: 56.8%
p70S6K/RPS6KB1
  remaining activity at 10 µM: 69.6%
HIPK4
  remaining activity at 10 µM: 73.6%
AKT1
  remaining activity at 10 µM: 81.4%
AMPK(A2/B2/G2)
  remaining activity at 10 µM: 83%
AMPK(A2/B2/G3)
  remaining activity at 10 µM: 85%
ULK2
  remaining activity at 10 µM: 86%
PRKX
  remaining activity at 10 µM: 87.4%
CDK2/cyclin A
  remaining activity at 10 µM: 88.3%
STK38/NDR1
  remaining activity at 10 µM: 90%
AMPK(A2/B2/G1)
  remaining activity at 10 µM: 90.2%
CK1a1
  remaining activity at 10 µM: 90.5%
CLK2
  remaining activity at 10 µM: 90.6%
KSR1
  remaining activity at 10 µM: 91.5%
MRCKb/CDC42BPB
  remaining activity at 10 µM: 94.7%
FLT4/VEGFR3
  remaining activity at 10 µM: 98.2%
STK32B/YANK2
  remaining activity at 10 µM: 99.6%
EIF2AK4
  remaining activity at 10 µM: 101%
P38d/MAPK13
  remaining activity at 10 µM: 104%
TEC
  remaining activity at 10 µM: 104%
MAPKAPK3
  remaining activity at 10 µM: 112%
PAK1
  remaining activity at 10 µM: 122%
PKCa
  remaining activity at 10 µM: 134%
PDK1/PDPK1
  remaining activity at 10 µM: 174%
